# Laboratory results reported in patent publication US12622890B2, “Use of the active compound in the prevention or treatment of ovarian dysfunction diseases” (INSTITUTE OF BIOPHYSICS, CHINESE ACADEMY OF SCIENCES, priority 2022, dated 2026).
# Structures can show the parent of a compound that is named as a salt.
# Legend:
# POI mice [1] = assay: Serum lactate dehydrogenase (LDH) level; format: in vivo
# Text: (§1) Biomarkers mentioned herein, such as follicle stimulating hormone (FSH), estrogen (e.g., E2), and superoxide dismutase (SOD), malondialdehyde (MDA), relative reactive oxygen species (ROS), and lactate dehydrogenase (LDH), etc., can be detected using methods commonly known in the field. Detection methods typically cover methods that quantify the level of a biomarker in a sample (quantitative methods). Which of the following methods are suitable for qualitative and/or quantitative detection of biomarkers is generally known to those skilled in the field. Samples can be conveniently measured, for example for proteins using immunoassays such as ELISA, RIA, etc., which are commercially available.
# [2] = tested on: aged mice with ovarian dysfunction; assay: Ovulation after controlled ovarian hyperstimulation in aged mice; format: in vivo; details: fourteen months old mice
# Protocol: In this Embodiment, the effect of sodium fumarate and hyodeoxy cholic acid on ovulation in aged mice with ovarian dysfunction (ovarian function decline due to natural aging) was examined. Fourteen months old mice were divided into three groups: control group (n=6), sodium fumarate group (SF, n=4), sodium fumarate and hyodeoxy cholic acid group (SF+HDCA, n=3).
# Methods: After controlled ovarian hyperstimulation (48 hours after pregnant horse serum injection, followed by chorionic gonadotropin injection), the ampulla of fallopian tubes of mice was collected 14-16 hours later, and the number of oocytes obtained was recorded. […] All 4 mice in the SF group ovulated.
# POI mice [3] = assay: Serum FSH level in POI mice; format: in vivo; details: for FSH: serum, after 12 days 100 mg/kg/d oral
# Text: as §1
# (§2) After 12 days of administration, half of the mice in each group were sacrificed, and their blood was collected and kept still. The serum was separated after centrifugation at 4500 rpm and stored in a refrigerator at −80° C. for future use to measure levels of follicle stimulating hormone, estrogen, and the indexes of oxidative stress such as superoxide dismutase (SOD) and malondial dehyde (MDA).
# as §2, with “kept in” for “kept”, “levals” for “levels”, “malondialdehyde” for “malondial dehyde”
# • 1. Hormone levels in mice blood of Example 1 are measured in this embodiment.
# POI mice [4] = assay: Serum estradiol (E2) level in POI mice; format: in vivo; details: for E2: serum, after 12 days 100 mg/kg/d oral
# Text: as §1, §2
# as §2, with “kept in” for “kept”, “levals” for “levels”, “malondialdehyde” for “malondial dehyde”
# [5] = Body weight of POI model mice before modeling, after modeling and after treatment; format: in vivo; details: for Body weight before modeling: D 0, 100 mg/kg/d oral; for Body weight after modeling: D 7, 100 mg/kg/d oral; for Body weight after treatment: D 13, 100 mg/kg/d oral
# Protocol: Animal model establishment: A total of 34 C57 female mice (8-week-old) were selected and intraperitoneally injected with the ratio of 120 mg/kg cyclophosphamide (SIGMA) and 30 mg/kg Busulfan (Aladdin) once a day for 1 week at the dose of 0.1 mL/10 g to establish the model of POI.
# Grouping: 34 POI model mice were randomly divided into four groups: sodium fumarate (SF) treatment group (n=9), hyodeoxycholic acid (HDCA) treatment group (n=8), sodium fumarate plus hyodeoxycholic acid (mass ratio 1:1) combination (SF+HDCA) treatment group (n=8) and normal saline (Vehicle) group (n=9). Mice in the SF group were given oral administration of SF at the ratio of 100 mg/kg/d body weight, mice in the HDCA group were given oral administration of HDCA at the ratio of 100 mg/kg/d body weight, and mice in the combination group were given oral administration of SF and HDCA at the ratio of 100 mg/kg/d body weight. SF and HDCA were dissolved with 0.9% normal saline when used. Mice in the vehicle group were given the same amount of normal saline orally. All the mice were treated consecutively for 12 days.
# Body weight were recorded at three time points, before modeling (at the beginning of treatment), after modeling and after treatment.
# Animal model establishment: A total of 24 C57 mice (8-week-old) were selected and intraperitoneally injected with the ratio of 120 mg/kg cyclophosphamide and 30 mg/kg Busulfan once a day for 1 week at the dose of 0.1 mL/10 g to establish the model of POI.
# Grouping: 24 POI model mice were randomly divided into four groups: dimethyl fumarate (DMF) treatment group (n=5), hyodeoxycholic acid (HDCA) treatment group (n=6), dimethyl fumarate plus hyodeoxycholic acid (mass ratio=1:1) combination (DMF+HDCA) treatment group (n=7) and normal saline (Vehicle) group (n=6). Mice in the DMF treatment group were orally administrated at the ratio of 100 mg/kg/d body weight. Mice in the HDCA treatment group were given oral administration of HDCA at the ratio of 100 mg/kg/d body weight, and mice in the combination group were given oral administration of DMF and HDCA at the ratio of 100 mg/kg/d body weight. Once daily, DMF and HDCA were dissolved in 0.9% normal saline when used. Mice in normal saline group were given the same amount of normal saline orally every day. The drug was administered for 12 days.
# Body weight were recorded at three time points, before modeling (at the beginning of treatment, the 0th day), after modeling (the 7th day) and after treatment (the 13th day).
# The body weight of POI model mice of each group was measured before modeling, after modeling and after treatment.
# POI model mice [6] = assay: Estrous cycle observation by vaginal smear cytology in POI model mice; format: in vivo
# Protocol: Cytological observation of vaginal smear was performed daily.
# The vagina of mice was exposed, and about 30 μl of normal saline was dripped into the vagina, gently aspirated onto the slide, and observed under the microscope. Staining was performed when necessary, fixed with 95% ethanol for 10 minutes, stained with hematoxylin in aqueous solution for 5-8 minutes, washed with running water for color separation, and then stained with eosin for 3 minutes. After drying. the slices were sealed with neutral gum.
# The vagina of mice was exposed, and about 30 μl of normal saline was dripped into the vagina, gently aspirated onto the slide, and observed under the microscope. Staining was performed when necessary, stained with hematoxylin in aqueous solution for several minutes after drying, washed with running water for color separation, and then stained with alchhol eosin for several seconds. The slices were sealed with neutral gum.
# During the estrous cycle, a series of histological and physiological changes occur in the reproductive and endocrine systems of mice. According to these changes, the estrous cycle can be divided into proestrous (P), estrous (E), metestrum (M) and diestrum (D). • 1. Observation of estrous cycle in mice of Example 1
# After modeling and treatment, there were 6 mice left in the normal saline group, 6 mice left in the sodium fumarate treatment group, 7 mice left in the hyodeoxycholic acid group, and 7 mice left in the sodium fumarate and hyodeoxycholic acid combination group. […] The estrous cycle was divided into four periods (P: proestrous; E: estrous period; M: metestrum; D: diestrum) for vaginal smear cytological observation, the results are shown in FIG. 3.
# The estrous cycle of mice was plotted according to the cytological results of vaginal smears observed for 12 consecutive days, and the results are shown in FIG. 4. The estrous cycle of mice is about 4 to 5 days, which is divided into four periods alternately. […] The estrous cycle of 4 mice was recovered in sodium fumarate treatment group. The estrous cycle of 3 mice was recovered in HDCA group. The estrous cycle of 6 mice was recovered in group treated with SF and HDCA.
# ovarian tissues = assay: RNA transcription level sequencing of ovarian tissues, differentially expressed genes; format: in vivo, mice; details: ovarian tissue RNA sequencing, FC>2, Q<0.05
# Protocol: Mice were sacrificed after various treatments, and ovarian tissues were taken, snap-frozen in liquid nitrogen, stored at −80° C., and sent to Annoroad for RNA transcription level sequencing. Bioinformatics analysis and mapping were performed on the sequencing results. […] The differential genes of the three treatment groups were intersectioned. […] These differential gene sets were then subjected to Gene Ontology function (GO) enrichment (FC>2, Q<0.05) (FIG. 16) and signaling pathway (KEGG) analysis mapping (FIG. 17), respectively.
# POI model mice [7] = assay: Estrous cycle observation by vaginal smear cytology in POI model mice; format: in vivo; remark: listed apart in the source
# POI mice [8] = assay: Serum superoxide dismutase (SOD) level, oxidative stress; format: in vivo
# Text: as §1, §2
# as §2, with “kept in” for “kept”, “levals” for “levels”, “malondialdehyde” for “malondial dehyde”
# (§3) The oxidative stress hypothesis believes that the reduction of antioxidant components in the body leads to the weakening of the ability to remove free radicals, which leads to oxidative damage of biological macromolecules, and the imbalance of cellular oxidative and antioxidant functions, which leads to oxidative stress, and then leads to disease and aging. Oxygen free radicals act on unsaturated fatty acids of lipids to generate lipid peroxides, including malondialdehyde (MDA) and so on. The antioxidant defense system of scavenging free radicals includes superoxide dismutase (SOD) and so on. Recently, oxidative stress has been reported to be associated with ovarian aging and POI in primates. Therefore, this embodiment examined the effects of DMF, HDCA, and DMF+HDCA on oxidative stress in mice with premature ovarian failure, and the results are shown in Table 5, FIGS. 9 to 12.
# POI mice [9] = assay: Serum malondialdehyde (MDA) level, oxidative stress; format: in vivo
# Text: as §1, §2
# as §2, with “kept in” for “kept”, “levals” for “levels”, “malondialdehyde” for “malondial dehyde”
# as §3
# POI mice [10] = assay: Serum relative reactive oxygen species (ROS) level; format: in vivo
# Text: as §1, §3
# [11] = serum, POI mice after treatment
# [12] = Example 1, during drug administration, FIG. 4B
# [13] = Example 2, during drug administration, FIG. 5B
# [14] = Example 2, FIG. 8, not statistically significant
compound,measurement,setting,value
"O=C([O-])/C=C/C(=O)[O-].[Na+].[Na+] [SF, sodium fumarate]",Activity of LDH compared with the normal saline group,POI mice [1]; FIG. 12,reduced to some extent
same,LDH,POI mice [1]; [11],3136.09 ± 294.67 U/mL
same,Restoration of ovulation in aged mice,[2],can restore ovulation
same,Number of mice that ovulated,"[2]; SF n=4, SF+HDCA n=3, FIG. 13",4 mice
same,Serum FSH level compared with the normal saline group,"POI mice [3]; Example 1, FIG. 6",certain increasing trend
same,FSH,POI mice [3]; Example 1 POI mice,8.56 ± 2.59 mIU/mL
same,Serum E2 level compared with the normal saline group,"POI mice [4]; Example 1, FIG. 7",tendency to increase
same,E2,POI mice [4]; Example 1 POI mice,57.24 ± 4.56 pg/mL
same,Body weight before modeling,[5]; Example 1 POI mice,18.77 ± 0.63 g
same,Body weight after modeling,[5]; Example 1 POI mice,18.15 ± 0.92 g
same,Body weight after treatment,[5]; Example 1 POI mice,18.07 ± 1.03 g
same,Weight recovery after chemotherapy,"[5]; Example 1 POI mice, FIG. 2A",significantly beneficial
same,Weight recovery after chemotherapy,"[5]; Example 2 POI mice, FIG. 2B",significantly beneficial
same,Effect on mice with premature ovarian failure (conclusion from estrous cycle),POI model mice [6]; Example 1,preventive and therapeutic effects
same,Average rate of diestrum (D) in estrous cycle,POI model mice [6]; [12],20.83%
same,Average rate of estrous stage (E) in estrous cycle,POI model mice [6]; [12],20.83%
same,Average rate of metestrum (M) in estrous cycle,POI model mice [6]; [12],18.10%
same,Average rate of proestrous (P) in estrous cycle,POI model mice [6]; [12],40.28%
same,Number of mice with estrous cycle recovered,"POI model mice [6]; Example 1, 12 days observation, 6 SF, 7 HDCA, 7 SF and HDCA mice left",4 mice
"COC(=O)/C=C/C(=O)OC [DMF, dimethyl fumarate]",Number of genes down-regulated compared with the control group,ovarian tissues,5261 genes
same,Number of genes up-regulated compared with the control group,ovarian tissues,1547 genes
same,Effect on mice with premature ovarian failure (conclusion from estrous cycle),POI model mice [7]; Example 2,preventive and therapeutic effects
same,Average rate of diestrum (D) in estrous cycle,POI model mice [7]; [13],55.00%
same,Average rate of estrous (E) stage in estrous cycle,POI model mice [7]; [13],15.00%
same,Average rate of metestrum (M) in estrous cycle,POI model mice [7]; [13],2.50%
same,Average rate of proestrous (P) in estrous cycle,POI model mice [7]; [13],27.50%
same,Number of mice with estrous cycle recovered,"POI model mice [7]; Example 2, 12 days observation, DMF n=5, HDCA n=6, DMF and HDCA n=7",4 mice
same,Activity of SOD compared with the normal saline group,"POI mice [8]; FIG. 9, difference not significant",increased
same,SOD,POI mice [8]; [11],14.42 ± 9.05 U/mL
same,Serum FSH level compared with the normal saline group,POI mice [3]; [14],certain decreasing trend
same,FSH,POI mice [3]; Example 2 POI mice,2.39 ± 1.07 mIU/mL
same,Serum E2 level compared with the normal saline group,POI mice [4]; [14],certain tendency to decrease
same,E2,POI mice [4]; Example 2 POI mice,48.86 ± 11.41 pg/mL
same,Body weight before modeling,[5]; Example 2 POI mice,19.22 ± 1.39 g
same,Body weight after modeling,[5]; Example 2 POI mice,16.54 ± 1.44 g
same,Body weight after treatment,[5]; Example 2 POI mice,16.98 ± 1.99 g
same,MDA activity compared with the normal saline group,"POI mice [9]; FIG. 10, no significant difference",reduced to some extent
same,MDA,POI mice [9]; [11],1.83 ± 3.06 nmol/mL
same,ROS levels compared with the normal saline group,POI mice [10]; FIG. 11,significantly reduced
same,ROS,"POI mice [10]; relative ROS level in serum, POI mice after treatment",4.610 ± 0.476
